Calls of active or inactive are those of the source.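 Rule for the calls: active = maximal percent inhibition of the deubiquitinase OTUD3 of at least 30% across the tested doses; inactive = the rest.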
Target: OTU domain-containing protein 3 (Homo sapiens) (UniProt Q5T2D3)
Experiment: Validation of screening hits, potency titration, in vitro enzymatic, OTU domain-containing protein 3 DUB inhibitors (AID 1645868)
Conditions: purified OTUD3, ubiquitin-rhodamine cleavage fluorescence, 2 h

OTU domain-containing protein 3 (Homo sapiens), sequence (Q5T2D3 whole entry, looked up, the tested form may be a part): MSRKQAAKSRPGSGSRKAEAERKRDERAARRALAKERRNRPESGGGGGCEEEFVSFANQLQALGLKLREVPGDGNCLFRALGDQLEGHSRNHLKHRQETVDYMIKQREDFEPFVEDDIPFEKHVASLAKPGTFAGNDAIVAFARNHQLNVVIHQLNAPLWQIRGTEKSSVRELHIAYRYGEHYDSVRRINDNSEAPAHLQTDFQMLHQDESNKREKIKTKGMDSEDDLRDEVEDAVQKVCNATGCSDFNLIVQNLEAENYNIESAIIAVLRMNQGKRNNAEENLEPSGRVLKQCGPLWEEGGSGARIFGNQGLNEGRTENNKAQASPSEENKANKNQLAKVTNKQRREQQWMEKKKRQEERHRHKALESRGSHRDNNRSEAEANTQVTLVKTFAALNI

Structure (SMILES)	IC50
CO/C1=C\C(C)=C/[C@@H](C)[C@@H](O)[C@@H](C)C/C(C)=C/C=C/[C@H](OC)[C@@H]([C@@H](C)[C@@H](O)[C@H](C)[C@@]2(O)C[C@@H](OC(=O)/C=C/C(N)=O)[C@H](C)[C@@H](C(C)C)O2)OC1=O	> 50 µM (inactive)
COc1ccccc1-c1nc2c3c(C)c(C)n(-c4ccc(Br)cn4)c3ncn2n1	> 50 µM (inactive)
Cc1noc(-c2ccc(N3CCCC(C(=O)NCc4ccc(F)cc4)C3)nc2)n1 (stereo unspecified)	32.2 µM
O=C(NCc1ccc2c(c1)OCO2)c1[nH]nc2c1COc1ccccc1-2	24.8 µM
N#Cc1ccc(NC(=O)COC(=O)c2ccc3ccccc3n2)cc1	> 50 µM (inactive)
COc1ccc(CNc2nn3c(-c4cncc(OC)c4)cnc3s2)cc1	> 50 µM (inactive)
COc1cc(OC)c2c(c1)C(=O)C1=C(COC(C)(O)C1)C2=O (stereo unspecified)	> 50 µM (inactive)
Cc1nn(-c2ccc([N+](=O)[O-])cc2)c(C)c1-c1nc2ccccc2[nH]1	24.3 µM
Cn1nc(-c2ccccc2)c(COC(=O)c2ccc([N+](=O)[O-])cc2)c1Cl	> 50 µM (inactive)
COc1ccccc1C(=O)N1CCc2[nH]c3ccc(F)cc3c2C1	> 50 µM (inactive)
CCCCN(CC)c1ncnc2c1sc1nc(-c3ccco3)c3c(c12)CC(C)(C)OC3	> 50 µM (inactive)
COc1ccc(C2CC(c3ccccc3)N(C(=O)C3CC3)c3ncnn32)cc1 (stereo unspecified)	> 50 µM (inactive)
O=C(Nc1cccc(Br)c1)c1cc(-c2cccnc2)n[nH]1	10.4 µM
O=C(CNC(=O)c1cc2ccccc2o1)Nc1ccc2c(c1)OCCO2	33.8 µM
CC(C)N(C(=O)Cn1c(=O)[nH]c2ccccc21)c1ccccc1	> 50 µM (inactive)
CC(=O)C1=C(O)[C@]2(O)C(=O)c3c(c(C)c4ccc(C)c(O)c4c3O)C[C@H]2[C@@H](N)C1=O	2.13 µM
C=C(NC(=O)C(=C)NC(=O)c1csc(C2=N[C@@H]3c4csc(n4)[C@H]4NC(=O)c5csc(n5)[C@H]([C@](C)(O)[C@@H](C)O)NC(=O)C5CSC(=N5)/C(=C/C)NC(=O)C([C@@H](C)O)NC(=O)c5csc(n5)[C@]3(CC2)NC(=O)[C@H](C)NC(=O)C(=C)NC(=O)[C@H](C)NC(=O)C([C@@H](C)CC)NC2C=Cc3c(C(C)O)cc(nc3[C@H]2O)C(=O)OC4C)n1)C(N)=O (stereo partly specified)	> 50 µM (inactive)
COc1ccc2c(C)c(CC(=O)N3CCC[C@H]3C(=O)O)c(=O)oc2c1C	> 50 µM (inactive)
Nc1ccc(NC(=O)c2cc3c(s2)CCC3)cc1[N+](=O)[O-]	23.5 µM
COc1ccc(CCNC(=O)CSc2cn(CCNC(=O)c3ccc(F)cc3)c3ccccc23)cc1OC	37.7 µM
O=C(CN1C=NC2=NS(=O)(=O)c3ccccc3N21)Nc1cc(F)ccc1F	31.8 µM
COc1ccc(CCNC(=O)c2cc3ccccc3s2)cc1OC	> 50 µM (inactive)
O=S(=O)(O)c1cc2cc3ccccc3cc2[nH]1	> 50 µM (inactive)

Structure (SMILES)	IC50
CN1C(=O)[C@]23CC4=CC=C[C@H](O)[C@H]4N2C(=O)[C@@]1(CO)SS3	> 50 µM (inactive)
CCOC(=O)c1ccc(NC(=O)c2cnc(N3CCOCC3)nc2)cc1	> 50 µM (inactive)
Cc1ccc2c(c1)N(C)C(=O)c1cc(NC(=O)c3ccc(F)cc3)ccc1O2	22.5 µM
Cc1ccc2nc(NC(=O)C3CCCN3S(=O)(=O)c3ccc4c(c3)OCCO4)sc2c1 (stereo unspecified)	> 50 µM (inactive)
CCc1cc2c(=O)[nH]c(Cc3ccc(OC)cc3)nc2s1	33.4 µM
CCOC(=O)c1ccc(-n2c(=O)c(C#N)cc3c(=O)n4ccccc4nc32)cc1	> 50 µM (inactive)
CC1CCN(C(=O)c2cn(-c3cc(N4CCC(C)CC4)ncn3)cn2)CC1	> 50 µM (inactive)
Cc1nc(-c2noc(-c3ccncc3)n2)cn1CC(=O)N1CCN(c2ccc(F)cc2)CC1	> 50 µM (inactive)
O=C(Nc1ccc2c(c1)OCCO2)c1ccc(N2CCCCC2)nn1	> 50 µM (inactive)
Cc1cc(C(F)(F)F)n(-c2ccc(NC(=O)Nc3cccc(C(F)(F)F)c3)cc2)n1	11.4 µM
COc1ccc(NC(=O)Cn2cc(C(=O)c3ccc(F)cc3)c(=O)c3cc(C)ccc32)cc1	23.2 µM
COc1ccc(Nc2nc3c(S(=O)(=O)c4ccc(C)cc4)nnn3c3ccsc23)c(OC)c1	40.1 µM
Cc1ccc(CN2CCCn3nc(C(=O)NCc4ccc(F)cc4)cc3C2=O)cc1	> 50 µM (inactive)
O=C1CC(c2cc3c(cc2Br)OCO3)c2cc3c(cc2N1)OCCO3 (stereo unspecified)	18.7 µM
CCCCc1nc2sc3c(NCCN4CCOCC4)ncnc3c2c2c1CCC2	> 50 µM (inactive)
COC(=O)c1ccc(NC(=O)CSc2nnc(-c3ccc(O)cc3)n2Cc2ccco2)cc1	> 50 µM (inactive)
CCCCOc1ccc(C(=O)Nc2ccc3c(c2)CCC(=O)N3CCC)cc1	> 50 µM (inactive)
c1ccc(-n2nnc(-c3noc(-c4cccnc4)n3)c2-c2ccncc2)cc1	24 µM
COc1cccc(NC(=O)c2ccc(-c3csc(C)n3)cc2)c1	> 50 µM (inactive)
CC(=O)NCc1nc(-c2ccc3c(c2)nc(C)c(=O)n3C2CCCC2)no1	> 50 µM (inactive)
COc1ccc(CCNC(=O)CCCCn2c(=O)c3ccccc3n(Cc3cccc(Cl)c3)c2=O)cc1OC	29.9 µM
CCn1cc(-c2cc(C(=O)Nc3cnn(Cc4cccc(F)c4)c3)c3ccccc3n2)cn1	> 50 µM (inactive)
O=[N+]([O-])c1ccccc1C(c1c[nH]c2ccccc12)c1c[nH]c2ccccc12	49.4 µM

Structure (SMILES)	IC50
COc1ccccc1Nc1ncc(C(=O)NCCc2ccc(Cl)cc2)c2ccccc12	21.2 µM
CCc1ccccc1NC(=O)c1cc(-c2ccccn2)n[nH]1	> 50 µM (inactive)
O=C(c1cnccn1)N1CCc2[nH]c3ccc(F)cc3c2C1	> 50 µM (inactive)
COc1ccc(C)cc1NC(=O)C1CC(=O)Nc2nc(SCc3ccccc3)nn21 (stereo unspecified)	16.9 µM
CC(C)(C)c1ccc(C(=O)Nc2ccc(Cn3cncn3)cc2)cc1	> 50 µM (inactive)
Cc1cc(C)n(-c2cccc(C(=O)Nc3ccc4c(c3)CCN4S(C)(=O)=O)c2)n1	> 50 µM (inactive)
Cc1ccc(Cn2nnc(C(=O)NCc3ccco3)c2-n2cccc2)cc1	> 50 µM (inactive)
CC(C)(C)C(=O)C1C2C(=O)N(c3ccc4c(c3)OCO4)C(=O)C2C2c3ccccc3C=CN12 (stereo unspecified)	> 50 µM (inactive)
O=C(COC(=O)Cn1cnc2ccccc21)Nc1ccc2c(c1)OCCO2	> 50 µM (inactive)
CCOC(=O)C1C(c2ccc(Br)cc2)C2(C(=O)c3ccccc3C2=O)C2C=Cc3ccccc3N12 (stereo unspecified)	> 50 µM (inactive)
Cc1ccc2[nH]c(=O)c(-c3nc4ccc(C)cn4c3NCc3ccc(F)cc3)cc2c1	3.37 µM
CCn1cnc2c1c(=O)n(CC(=O)NCc1ccccc1Cl)c(=O)n2Cc1ccccc1	> 50 µM (inactive)
CCCC(=O)N1CCC2(CC1)Nc1ccccc1NC2=O	> 50 µM (inactive)
N#Cc1ccccc1Cn1c(=O)n(Cc2ccco2)c(=O)c2ccccc21	> 50 µM (inactive)
c1csc(CCN2CCc3nc4cccnc4cc3C2)c1	> 50 µM (inactive)
Nc1c(C(=O)NCCc2ccccc2)nnn1-c1ccc(F)cc1	> 50 µM (inactive)
CCC(=O)OCc1cnc(C)c2oc(=O)c(-c3nc(-c4ccccc4)no3)cc12	> 50 µM (inactive)
Cn1c(=O)cc(SCC(=O)NC2CCN(Cc3ccccc3)CC2)c2ccc(Cl)cc21	> 50 µM (inactive)
Cc1cc(C)cc(NC(=O)CN2C(=O)CC(c3ccccc3)Sc3ccccc32)c1 (stereo unspecified)	> 50 µM (inactive)
Cc1noc(C)c1CN1CC[C@H]2O[C@H](C(=O)NCc3ccco3)CC[C@H]21	> 50 µM (inactive)
COc1ccc(NC(=O)c2ccc(Nc3nnc(C)c4ccccc34)cc2)cc1	> 50 µM (inactive)
Cc1noc(C)c1S(=O)(=O)Nc1ccc(C(=O)Nc2ccc3c(c2)OCCO3)cc1	> 50 µM (inactive)
O=C(NC1CCCCC1)c1cc2c(cn1)[nH]c1ccccc12	> 50 µM (inactive)

Structure (SMILES)	IC50
O=C(c1cccnc1)N1CCC2(CC1)CC1(CO2)Nc2ccccc2-n2cccc21 (stereo unspecified)	> 50 µM (inactive)
COc1cc(C)cc2c1C(=O)c1c(cc(O)c(Cl)c1O)C2=O	2.08 µM
CCc1nc(-c2cccc(NC(=O)c3ccc(C#N)cc3F)c2)no1	> 50 µM (inactive)
Cc1ccc(C(=O)c2cn(CC(=O)Nc3ccccc3)c3ccc(C)cc3c2=O)cc1	21.1 µM
NC(=O)c1nc(-c2cccnc2)nc2c1[nH]c(=O)n2-c1ccc2c(c1)OCO2	> 50 µM (inactive)
Cc1ccc(-n2cc3c(N4CCCC(C(=O)NCC5CCCCC5)C4)ncnc3n2)cc1 (stereo unspecified)	> 50 µM (inactive)
COc1ccc2nc(Nc3nc(-c4cnc(N5CCOCC5)nc4C)cc(=O)[nH]3)nc(C)c2c1	> 50 µM (inactive)
COC(=O)[C@]1(O)O[C@@]2(C(=O)OC)c3c(oc4cc(C)cc(O)c4c3=O)[C@H]3c4c(oc5cc(C)cc(O)c5c4=O)C[C@H]1[C@H]32	> 50 µM (inactive)
Cc1ccc(/C=C/C(=O)Nc2ccc3c(c2)OCCO3)cc1	> 50 µM (inactive)
Cc1cccc(NC(=O)Nc2nnc(CC(=O)NCc3ccccc3)s2)c1	23.9 µM
CSc1nc2ncn(CC(=O)Nc3cccc(Cl)c3)c(=O)c2s1	> 50 µM (inactive)
Cc1ccc(C)c(Nc2cc(C)nc3nc(-c4ccco4)nn23)c1	> 50 µM (inactive)
CCn1c(Cn2cccn2)nc2cc(NC(=O)c3ccc(F)cc3)ccc21	> 50 µM (inactive)
Cc1cc(C)cc(N(CCC(=O)Nc2ccc(N3CCOCC3)cc2)S(=O)(=O)c2ccc(Cl)cc2)c1	19.7 µM
Cc1ccc(NC(=O)Cc2nnc3cc(-c4nc(C)no4)ccn23)cc1	21.8 µM
Cc1cnc2nc3c(cc2c1)CN(CCc1ccc(Cl)cc1)CC3	> 50 µM (inactive)
COc1cccc(NC(=O)C2CCN(C(=O)c3cc(-c4cccnc4)n[nH]3)CC2)c1	> 50 µM (inactive)
CCOc1ccc(S(=O)(=O)Nc2ccc[nH]c2=O)cc1	> 50 µM (inactive)
COc1ccc(S(=O)(=O)N2CCN3Cc4ccccc4N(C)CC3C2)cc1 (stereo unspecified)	> 50 µM (inactive)
CCCCNC(=O)c1cc2cccnc2n(Cc2ccccc2)c1=O	> 50 µM (inactive)
COC(=O)c1ccc(C(=O)Nc2cc3ccccc3cc2NC(=O)c2ccc(C(=O)OC)cc2)cc1	19.1 µM
Cc1cc(O)cc2cc3c(c(O)c12)C(=O)CCC3O (stereo unspecified)	> 50 µM (inactive)

— PubChem BioAssay AID1645868 (Buhrlage Lab, Dana-Farber Cancer Institute and Novartis …, 2021)
